Earlier results in PMC9516332 (Frontiers in Oncology, 2022).
Read-outs that look alike come from different tables or passages of the source.

Experiments:
Settings in all cases: cited from earlier work
[1] = molecular target: T1, panel of 255 wild-type kinases (Homo sapiens, UniProt Q13188)
T1 sequence (Q13188 1-491): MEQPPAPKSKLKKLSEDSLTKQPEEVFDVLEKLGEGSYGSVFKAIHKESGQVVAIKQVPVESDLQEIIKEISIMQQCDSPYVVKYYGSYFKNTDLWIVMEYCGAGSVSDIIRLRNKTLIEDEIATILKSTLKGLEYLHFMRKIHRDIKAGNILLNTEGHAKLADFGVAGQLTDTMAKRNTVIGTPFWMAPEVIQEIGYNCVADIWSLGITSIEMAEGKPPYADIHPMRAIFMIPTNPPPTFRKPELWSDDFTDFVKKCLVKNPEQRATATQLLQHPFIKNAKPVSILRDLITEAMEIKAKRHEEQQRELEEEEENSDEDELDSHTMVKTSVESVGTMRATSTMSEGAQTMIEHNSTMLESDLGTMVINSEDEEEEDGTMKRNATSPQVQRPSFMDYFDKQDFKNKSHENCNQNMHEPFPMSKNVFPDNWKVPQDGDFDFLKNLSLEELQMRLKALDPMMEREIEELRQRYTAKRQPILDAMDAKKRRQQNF

[2] = molecular target: panel of 255 wild-type kinases (Homo sapiens, UniProt P49137)
[3] = molecular target: panel of 255 wild-type kinases (Homo sapiens, UniProt Q14289)
[4] = molecular target: panel of 255 wild-type kinases (Homo sapiens, UniProt Q8IU85)
[5] = molecular target: T2, panel of 255 wild-type kinases (Homo sapiens, UniProt Q08881)
T2 sequence (Q08881 1-620): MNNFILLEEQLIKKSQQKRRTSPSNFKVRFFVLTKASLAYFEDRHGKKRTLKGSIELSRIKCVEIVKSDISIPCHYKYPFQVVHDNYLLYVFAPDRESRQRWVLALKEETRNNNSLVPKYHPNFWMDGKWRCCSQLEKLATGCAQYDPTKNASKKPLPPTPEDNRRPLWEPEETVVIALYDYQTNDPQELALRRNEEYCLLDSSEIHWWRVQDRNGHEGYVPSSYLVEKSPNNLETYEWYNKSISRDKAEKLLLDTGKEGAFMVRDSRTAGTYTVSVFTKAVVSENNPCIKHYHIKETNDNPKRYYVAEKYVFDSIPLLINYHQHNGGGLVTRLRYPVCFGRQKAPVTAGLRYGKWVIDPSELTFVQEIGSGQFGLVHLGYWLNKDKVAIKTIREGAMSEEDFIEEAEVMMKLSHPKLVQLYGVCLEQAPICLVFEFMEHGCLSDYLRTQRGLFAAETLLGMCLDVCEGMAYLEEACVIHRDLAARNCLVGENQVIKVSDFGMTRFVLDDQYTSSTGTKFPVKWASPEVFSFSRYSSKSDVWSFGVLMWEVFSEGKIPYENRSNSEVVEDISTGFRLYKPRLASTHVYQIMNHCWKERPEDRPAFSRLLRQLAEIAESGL

[6] = molecular target: panel of 255 wild-type kinases (Homo sapiens, UniProt P29597)
[7] = molecular target: panel of 255 wild-type kinases (Homo sapiens, UniProt Q9H422)
[8] = molecular target: panel of 255 wild-type kinases (Homo sapiens, UniProt P51451)
[9] = molecular target: panel of 255 wild-type kinases (Homo sapiens, UniProt Q9H0K1)
[10] = molecular target: T3, panel of 255 wild-type kinases (Homo sapiens, UniProt Q13976)
T3 sequence (Q13976 1-671): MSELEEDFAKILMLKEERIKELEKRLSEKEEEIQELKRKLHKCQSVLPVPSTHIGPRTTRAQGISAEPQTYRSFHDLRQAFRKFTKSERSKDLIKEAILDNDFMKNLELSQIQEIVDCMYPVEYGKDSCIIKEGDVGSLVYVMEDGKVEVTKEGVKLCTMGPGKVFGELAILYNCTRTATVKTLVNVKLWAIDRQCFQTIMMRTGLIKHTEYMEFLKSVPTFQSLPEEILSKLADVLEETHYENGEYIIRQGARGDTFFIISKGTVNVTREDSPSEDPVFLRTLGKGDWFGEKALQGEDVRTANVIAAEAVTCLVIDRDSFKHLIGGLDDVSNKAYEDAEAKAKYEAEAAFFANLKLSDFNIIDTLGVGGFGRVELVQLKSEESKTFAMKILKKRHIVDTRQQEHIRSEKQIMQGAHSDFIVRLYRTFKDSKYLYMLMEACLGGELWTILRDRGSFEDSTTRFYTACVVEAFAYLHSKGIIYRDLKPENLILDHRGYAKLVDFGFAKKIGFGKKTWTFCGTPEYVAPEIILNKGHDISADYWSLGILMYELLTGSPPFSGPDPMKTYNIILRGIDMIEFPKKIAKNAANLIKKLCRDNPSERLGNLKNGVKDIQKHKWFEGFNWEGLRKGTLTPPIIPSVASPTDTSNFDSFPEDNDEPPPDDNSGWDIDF

[11] = molecular target: panel of 255 wild-type kinases (Homo sapiens, UniProt P07947)
[12] = MST2, 1 µmol/L single concentration, ref DOI: 10.1371/journal.pone.0092146
[13] = kinase MAPKAPK2, 1 µmol/L single concentration, ref DOI: 10.1371/journal.pone.0092146
[14] = kinase PYK2, 1 µmol/L single concentration, ref DOI: 10.1371/journal.pone.0092146
[15] = CaMK1δ kinase assay, 1 µmol/L single concentration, ref DOI: 10.1371/journal.pone.0092146
[16] = kinase ITK, 1 µmol/L single concentration, ref DOI: 10.1371/journal.pone.0092146
[17] = kinase TYK2, 1 µmol/L single concentration, ref DOI: 10.1371/journal.pone.0092146
[18] = kinase HIPK3, 1 µmol/L single concentration, ref DOI: 10.1371/journal.pone.0092146
[19] = BLK kinase assay, 1 µmol/L single concentration, ref DOI: 10.1371/journal.pone.0092146
[20] = kinase QIK, 1 µmol/L single concentration, ref DOI: 10.1371/journal.pone.0092146
[21] = kinase PGK, 1 µmol/L single concentration, ref DOI: 10.1371/journal.pone.0092146
[22] = kinase YES, 1 µmol/L single concentration, ref DOI: 10.1371/journal.pone.0092146

Structure (SMILES)	%-inhibition, MST2 [1, 12] [%]	%-inhibition at 1 µmol/L, MAPKAPK2 [2, 13] [%]	%-inhibition at 1 µmol/L, PYK2 [3, 14] [%]	%-inhibition CaMK1δ [4, 15] [%]	%-inhibition at 1 µmol/L, ITK [5, 16] [%]	%-inhibition at 1 µmol/L, TYK2 [6, 17] [%]	%-inhibition at 1 µmol/L, HIPK3 [7, 18] [%]	%-inhibition BLK [8, 19] [%]	%-inhibition at 1 µmol/L, QIK [9, 20] [%]	%-inhibition at 1 µmol/L, PGK [10, 21] [%]	%-inhibition at 1 µmol/L, YES [11, 22] [%]	further results
COc1cc(N2CCC(N3CCN(C)CC3)CC2)ccc1Nc1ncc(Cl)c(Nc2ccccc2P(C)(C)=O)n1 [brigatinib]	–	–	–	–	–	–	–	–	–	–	–	%-inhibition, MST2 [1]: 20%; %-inhibition at 1 µmol/L, MAPKAPK2 [2]: -14%; %-inhibition at 1 µmol/L, PYK2 [3]: 104%; %-inhibition CaMK1δ [4]: 62%; %-inhibition at 1 µmol/L, ITK [5]: 95%; %-inhibition at 1 µmol/L, TYK2 [6]: 23%; %-inhibition at 1 µmol/L, HIPK3 [7]: 7%; %-inhibition BLK [8]: 83%; %-inhibition at 1 µmol/L, QIK [9]: 100%; %-inhibition at 1 µmol/L, PGK [10]: 60%; %-inhibition at 1 µmol/L, YES [11]: 102%
CCCS(=O)(=O)Nc1ccc(F)c(C(=O)c2c[nH]c3ncc(-c4ccc(Cl)cc4)cc23)c1F [vemurafenib]	24	-16	0.921	-7	3	6	-6	52	6	-4.33	74	–
CC(=O)Nc1cccc(-n2c(=O)n(C3CC3)c(=O)c3c(Nc4ccc(I)cc4F)n(C)c(=O)c(C)c32)c1 [trametinib]	-3	-0.335	2.72	-3.3	-7.56	2.16	0.0849	-2.79	-4.66	-1.31	-1.63	–
